Assay: RP, Waters ACQUITY UPLC BEH C18, 100 × 1 mm, 1.7 µm, -1 °C, 0.15 mL/min, estimated dead time 0.33 min; A: water + 0.1% formic acid; B: acetonitrile + 0.1% formic acid; gradient (min/%B) 0/5 8/25 14/70 20/95 23/95
Conditions: stereoisomer not certain

**Q.** For `CC(C(=O)O)C(O)(CC(=O)O)C(=O)O` (centres undefined), which LC retention time is on record?
**A.** 4.3 min

**Q.** For `CSCC1OC(n2cnc3c(N)ncnc32)C(O)C1O` (centres undefined), which LC retention time is on record?
**A.** 0.7 min

**Q.** With `Cc1cn(C2CC(O)C(COP(=O)(O)O)O2)c(=O)[nH]c1=O` (centres undefined) as the molecule, how does the LC retention time read?
**A.** 1.2 min

**Q.** With `Cc1cn(C2CC(O)C(CO)O2)c(=O)[nH]c1=O` (centres undefined) as the molecule, how does the LC retention time read?
**A.** 0.7 min

**Q.** Which LC retention time does the source give for `CCC(=O)OC(CC(=O)[O-])C[N+](C)(C)C` (centres undefined) here?
**A.** 0.6 min

**Q.** Which LC retention time does the source give for `NC(COP(=O)(O)O)C(=O)O` (centres undefined) here?
**A.** 0.6 min

**Q.** With `NC(CCO)C(=O)O` (centres undefined) as the molecule, how does the LC retention time read?
**A.** 0.9 min

**Q.** Which LC retention time does the source give for `NC(=O)NCCCC(N)C(=O)O` (centres undefined) here?
**A.** 0.5 min

**Q.** With `NC(CCC(=O)NC(CS)C(=O)NCC(=O)O)C(=O)O` (centres undefined) as the molecule, how does the LC retention time read?
**A.** 3 min

**Q.** For `Cc1c[nH]c(=O)[nH]c1=O`, which LC retention time is on record?
**A.** 0.7 min

**Q.** For `CC(=O)NC1C(OP(=O)(O)OP(=O)(O)OCC2OC(n3ccc(=O)[nH]c3=O)C(O)C2O)OC(CO)C(O)C1O` (centres undefined), which LC retention time is on record?
**A.** 0.7 min

**Q.** With `CC(C)CC(N)C(=O)O` (centres undefined) as the molecule, how does the LC retention time read?
**A.** 0.7 min

**Q.** Which LC retention time does the source give for `NC(=NCCCC(N)C(=O)O)NC(CC(=O)O)C(=O)O` (centres undefined) here?
**A.** 0.6 min

**Q.** With `CC(C)CC(=O)OC(CC(=O)[O-])C[N+](C)(C)C` (centres undefined) as the molecule, how does the LC retention time read?
**A.** 0.7 min

**Q.** With `C[N+](C)(C)CCOP(=O)(O)O` as the molecule, how does the LC retention time read?
**A.** 0.7 min

**Q.** For `Nc1ccnc(=O)[nH]1`, which LC retention time is on record?
**A.** 4 min

**Q.** For `C[N+](C)(C)CCO`, which LC retention time is on record?
**A.** 0.6 min

**Q.** With `Cc1ncccc1C(N)=O` as the molecule, how does the LC retention time read?
**A.** 0.7 min

**Q.** With `CSCCC(NC(C)=O)C(=O)O` (centres undefined) as the molecule, how does the LC retention time read?
**A.** 0.6 min

**Q.** With `CC(N)C(=O)O` (centres undefined) as the molecule, how does the LC retention time read?
**A.** 0.7 min

**Q.** For `CS(=O)CCC(N)C(=O)O` (centres undefined), which LC retention time is on record?
**A.** 0.6 min

**Q.** For `CC(C)C(N)C(=O)O` (centres undefined), which LC retention time is on record?
**A.** 0.7 min

**Q.** Which LC retention time does the source give for `CNCC(=O)O` here?
**A.** 0.7 min

**Q.** Which LC retention time does the source give for `CC(=O)NC(CCC(=O)O)C(=O)O` (centres undefined) here?
**A.** 0.6 min

**Q.** Which LC retention time does the source give for `NC(=O)CCC(N)C(=O)O` (centres undefined) here?
**A.** 0.8 min

**Q.** With `NC(=O)c1cccnc1` as the molecule, how does the LC retention time read?
**A.** 0.8 min

**Q.** For `C[S+](CCC(N)C(=O)O)CC1OC(n2cnc3c(N)ncnc32)C(O)C1O` (centres undefined), which LC retention time is on record?
**A.** 0.6 min

**Q.** With `CCCC(=O)OC(CC(=O)[O-])C[N+](C)(C)C` (centres undefined) as the molecule, how does the LC retention time read?
**A.** 0.6 min

**Q.** For `CC(C)(CO)C(O)C(=O)NCCC(=O)O` (centres undefined), which LC retention time is on record?
**A.** 0.7 min

**Q.** For `NC(Cc1c[nH]c2ccccc12)C(=O)O` (centres undefined), which LC retention time is on record?
**A.** 1.2 min

**Q.** For `CC(=O)NC(CCC(N)=O)C(=O)O` (centres undefined), which LC retention time is on record?
**A.** 0.6 min

**Q.** Which LC retention time does the source give for `C[N+](C)(C)CC(O)CC(=O)[O-]` (centres undefined) here?
**A.** 0.7 min

**Q.** Which LC retention time does the source give for `Nc1ccccc1C(=O)CC(N)C(=O)O` (centres undefined) here?
**A.** 0.9 min

**Q.** For `CC(=O)OC(CC(=O)[O-])C[N+](C)(C)C` (centres undefined), which LC retention time is on record?
**A.** 0.7 min
